Data as given in ChEMBL document CHEMBL1149094, “3-(4-Aroyl-1-methyl-1H-pyrrol-2-yl)-N-hydroxy-2-propenamides as a new class of synthetic histone deacetylase inhibitors. 3. Discovery of novel lead compounds through structure-based drug design and docking studies” (J Med Chem, 2004).
pIC50: −log10 of the molar value.

Assays:
[1] = biological target: T1, Histone deacetylase 1 (Mus musculus, UniProt O09106); experiment: Inhibition of mouse HDAC1
[2] = biological target: T2, Histone deacetylase HD2 (Zea mays) (UniProt Q94F81); experiment: Percent inhibition of maize histone deacetylase 2 receptor at a dose of 30 uM
T2 sequence (whole entry): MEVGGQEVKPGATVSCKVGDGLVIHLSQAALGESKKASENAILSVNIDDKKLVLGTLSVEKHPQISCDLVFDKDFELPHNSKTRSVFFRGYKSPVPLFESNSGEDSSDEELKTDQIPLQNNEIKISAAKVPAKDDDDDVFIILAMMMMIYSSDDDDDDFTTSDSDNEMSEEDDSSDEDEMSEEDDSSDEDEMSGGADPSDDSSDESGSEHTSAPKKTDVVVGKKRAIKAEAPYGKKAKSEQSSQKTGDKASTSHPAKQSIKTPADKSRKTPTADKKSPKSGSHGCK

[3] = biological target: T3, Histone deacetylase HD2 (Zea mays, UniProt Q94F81); experiment: Inhibition of maize Histone deacetylase 2
T3 sequence (Q94F81 whole entry): T2 sequence (whole entry)

[4] = biological target: T1, Histone deacetylase 1; experiment: Inhibition of mouse Histone deacetylase 1 (HDAC1) receptor
[5] = biological target: T3, Histone deacetylase HD2; experiment: Inhibition of maize histone deacetylase 2

T1 sequence (O09106 whole entry): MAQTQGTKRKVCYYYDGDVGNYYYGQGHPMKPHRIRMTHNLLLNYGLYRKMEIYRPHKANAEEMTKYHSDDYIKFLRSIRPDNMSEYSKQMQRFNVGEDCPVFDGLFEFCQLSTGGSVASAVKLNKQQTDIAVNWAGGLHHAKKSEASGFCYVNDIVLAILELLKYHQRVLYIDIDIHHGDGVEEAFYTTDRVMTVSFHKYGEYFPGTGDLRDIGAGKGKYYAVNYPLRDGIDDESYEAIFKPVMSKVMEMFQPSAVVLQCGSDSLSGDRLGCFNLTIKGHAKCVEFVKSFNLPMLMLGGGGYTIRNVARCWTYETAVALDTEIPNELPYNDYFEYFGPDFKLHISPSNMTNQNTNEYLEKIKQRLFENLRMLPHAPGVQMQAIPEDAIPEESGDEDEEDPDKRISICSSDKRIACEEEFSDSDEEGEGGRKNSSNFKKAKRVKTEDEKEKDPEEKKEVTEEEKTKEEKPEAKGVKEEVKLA

| pIC50 [1] | inhibition [2] | pIC50 [3] | pIC50 [4] | pIC50 [5] | SMILES |
| --- | --- | --- | --- | --- | --- |
| 6.11 | 97% | 7.30 | 6.11 | 7.30 | Cn1cc(/C=C/C(=O)NO)cc1C(=O)c1ccccc1 |
| 6.64 | 95% | 6.60 | 6.60 | 6.55 | Cn1c(/C=C/C(=O)NO)ccc1C(=O)c1ccccc1 |
